What all share (assay): NCI tumour cell line growth inhibition, 48 h
Assay [1] has as its system OVCAR-4 ovarian.
Assay [2] has as its system UO-31 renal.
Assay [3] relates to T-47D breast.
In assay [4] the test system is IGROV1 ovarian.
Assay [5] concerns LOX IMVI melanoma.
Assay [6] relates to HOP-92 NSCLC.
Assay [7] deals with BT-549 breast.
Assay [8] relates to HCT-116 colon.
Assay [9] deals with KM12 colon.
The subject of assay [10] is A549 NSCLC.

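Compound exposure: 48 hours, 5 concentrations, 96-well plates. TGI is the concentration that stops growth completely.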 Some results are limits rather than exact numbers.

On to `C[C@@H]1CC(=O)C[C@@H]2CC[C@H]3[C@@H]4CC[C@H](OC(=O)c5cccc6cc7ccccc7nc56)[C@H]4CC[C@@H]3[C@H]21`, for which the TGI came to 30.9 µM in assay [1]; 31 µM in assay [2]; 37.5 µM in [3]; 19.2 µM in assay [4]; 39.8 µM in [5]; 48.1 µM in assay [6]. Further, the TGI in [7] worked out at 59.1 µM; in [8] it was 27.1 µM; in [9] it was 31.5 µM; in assay [10] it was 83.2 µM.

As for `C/C(=N\O)c1cccc[n+]1Cc1ccccc1`, the TGI in assay [1], in [2], in assay [3], in assay [4], in assay [5] and in [6] was > 100 µM in each case. The TGI in [7], in [8], in assay [9] and in assay [10] was > 100 µM each time.

Turning to `C=C1C(=O)O[C@H]2C[C@@H]1[C@@H](O)[C@H](O)[C@@H](C)CCCC(C)=CCC[C@@]2(C)O`, the TGI in [1] is 83.9 µM; in assay [2], 28.5 µM; in assay [3] it was 57.1 µM; in assay [4] it was > 100 µM; in [5], 65 µM; in [6], 99.5 µM. Further, the TGI in [7] is 25.9 µM; in [8] it was 51.8 µM; in [9], > 100 µM; in assay [10] it was > 100 µM.

For `NCCN1C(=O)c2ccccc2C1c1ccc(Cl)cc1` (stereo not drawn), the TGI in [1], in assay [2], in assay [3], in assay [4], in assay [5] and in [6] was > 100 µM in each case. The TGI in assay [7], in [8], in assay [9] and in [10] was > 100 µM throughout.

With `COc1ccccc1C(=O)NCC1CCCN2CCCCC12` (stereo not drawn), the TGI in assay [1], in assay [2], in assay [3], in assay [4], in assay [5] and in assay [6] was > 100 µM throughout. Also, the TGI in [7], in assay [8], in assay [9] and in [10] was > 100 µM in each case.

As to `O=C(NO)NCCCl`, the TGI in [1], in assay [2], in assay [3], in assay [4], in [5] and in assay [6] was > 100 µM each time. Moreover, the TGI in [7], in assay [8], in [9] and in assay [10] was > 100 µM each time.

`COc1ccc(NCC(=O)Nn2c(-c3ccccc3)nc3ccccc3c2=O)cc1`: the TGI in [1] was > 100 µM; in [2] it was > 100 µM; in assay [3] it was > 100 µM; in assay [4] it was > 100 µM; in assay [5] it was 44 µM; in assay [6], > 100 µM. In addition, the TGI in assay [7] was 65.4 µM; in [8], > 10 µM; in assay [9], > 100 µM; in assay [10] it was > 100 µM.

Take `O=C1CSC(c2ccc(Cl)cc2Cl)N1c1ccc(Oc2ccc(Cl)cc2)c(Cl)c1` (stereo not drawn): the TGI in assay [1] is 78.6 µM; in assay [2], 32.6 µM; in assay [3] it was 90.1 µM; in assay [4] it was > 100 µM; in [5], 36.6 µM; in assay [6] it was 49.4 µM. Besides, the TGI in [7] is 68.2 µM; in [8] it was 36.2 µM; in [9], 50.1 µM; in [10], > 100 µM.

Take `CCCCCCCCCCCCCCCCNc1ccn(C2CC(O)C(COC(c3ccccc3)(c3ccccc3)c3ccc(OC)cc3)O2)c(=O)n1` (stereo not drawn): the TGI in assay [1] was > 100 µM; in [2], 53.8 µM; in assay [3], > 100 µM; in assay [4], > 100 µM; in [5], > 100 µM; in assay [6], > 100 µM. Further, the TGI in assay [7], in assay [8], in assay [9] and in [10] was > 100 µM each time.

On to `Cc1cc2nc3c(C#N)c4c(c(-c5ccc(Cl)cc5)n3c2cc1C)CCC4`, for which the TGI in assay [1] was 97.1 µM; in assay [2], 39.4 µM; in assay [3], 52.1 µM; in assay [4], 36.2 µM; in assay [5], 90.6 µM; in assay [6], 50.7 µM. For the same molecule, the TGI in [7] was 41.8 µM; in assay [8], 32.7 µM; in assay [9], 47.8 µM; in assay [10], > 100 µM.

Regarding `Cc1cccc(CC(Cc2ccc(C)cc2C(=O)O)C(=O)O)c1` (stereo not drawn), the TGI in assay [1], in assay [2], in assay [3], in assay [4], in assay [5] and in assay [6] was > 100 µM throughout. Further, the TGI in assay [7], in assay [8], in assay [9] and in assay [10] was > 100 µM each time.

Take `COc1ccccc1C1(c2c(OC)c(=O)c2=O)SCCCS1`: the TGI in [1], in [2], in assay [3], in assay [4], in assay [5] and in assay [6] was > 100 µM each time. For the same molecule, the TGI in assay [7], in [8], in assay [9] and in [10] was > 100 µM throughout.

Take `COc1cc(OC)c2c(c1)OC(c1cccnc1)C(c1ccccc1)C2=O` (stereo not drawn): the TGI in [1], in [2], in [3], in [4], in [5] and in [6] was > 100 µM throughout. Also, the TGI in [7], in assay [8], in assay [9] and in assay [10] was > 100 µM throughout.

Consider `CC(C)(C)N/N=C(\C(=O)NC1=C(Cl)C(=O)c2ccccc2C1=O)C1C=CCS1(=O)=O` (stereo not drawn), for which the TGI worked out at 30.7 µM in assay [1]; 37.7 µM in assay [2]; 37.8 µM in [3]; 24.5 µM in [4]; 39.7 µM in assay [5]; 33 µM in [6]. Moreover, the TGI in [7] is 25.1 µM; in assay [8], 35 µM; in [9] it was > 100 µM; in assay [10], 38.5 µM.

Turning to `COC(=O)c1cc(OC)c(OC)c(OC)c1-c1cc2c(cc1C=O)OCO2`, the TGI in assay [1], in [2], in assay [3], in assay [4], in assay [5] and in [6] was > 10 µM throughout. The TGI in assay [7], in [8], in assay [9] and in assay [10] was > 10 µM each time.

Regarding `CC(C)=CC[C@]12CCN(C)[C@H]1N(S(=O)(=O)c1ccccc1)c1ccccc12`, the TGI is > 100 µM in assay [1]; > 100 µM in [2]; > 76 µM in assay [3]; > 100 µM in assay [4]; > 51.6 µM in assay [5]; > 79.9 µM in [6]. For the same molecule, the TGI in [7], in assay [8], in assay [9] and in assay [10] was > 100 µM in each case.

Turning to `O=C(SCc1cccc2ccccc12)c1ccc(Cl)cc1`, the TGI in assay [1], in assay [2], in assay [3], in assay [4], in [5] and in assay [6] was > 100 µM in each case. In addition, the TGI in [7], in assay [8], in assay [9] and in assay [10] was > 100 µM each time.

For the molecule `NC(Cc1ccc2nc3c4ccccc4c(=O)cc-3oc2c1)C(=O)O` (stereo not drawn), the TGI in assay [1], in assay [2], in assay [3], in assay [4], in assay [5] and in assay [6] was > 100 µM in each case. Besides, the TGI in [7], in assay [8], in assay [9] and in assay [10] was > 100 µM throughout.

Regarding `Cc1c2c(n(CC(c3ccccc3)c3ccccc3)c1C)NN=C(C#N)S2(=O)=O`, the TGI in assay [1], in [2], in assay [3], in [4], in [5] and in assay [6] was > 100 µM each time. Further, the TGI in assay [7], in assay [8], in assay [9] and in assay [10] was > 100 µM each time.

As for `CC(C)(NC(=O)OCc1ccccc1)C(=O)OC(=O)C(C)(C)NC(=O)OCc1ccccc1`, the TGI in assay [1], in [2], in [3], in assay [4], in assay [5] and in [6] was > 100 µM each time. Besides, the TGI in assay [7], in [8], in [9] and in assay [10] was > 100 µM each time.

With `OC1(c2ccc(Cl)cc2)c2ccccc2-c2nc3ccccc3n21` (stereo not drawn), the TGI in assay [1], in assay [2], in assay [3], in assay [4], in assay [5] and in assay [6] was > 100 µM each time. The TGI in assay [7], in assay [8], in assay [9] and in [10] was > 100 µM throughout.

In the case of `C#CC(O)/C=C/CCCCCCC#CC/C=C\CC#CCCCCCCCCC(O)C#C` (stereo not drawn), the TGI in [1] is 15.7 µM; in assay [2], 1.41 µM; in assay [3], 36.3 µM; in [4] it was 1.12 µM; in assay [5], < 0.0261 µM; in assay [6], 5.05 µM. The TGI was determined as 20.4 µM in assay [7], 7.77 µM in [8], 11.5 µM in [9] and 25.8 µM in [10].

Turning to `C[C@]12CC(c3ccccc3O1)C(C(=O)Nc1nc(C34CC5CC(CC(C5)C3)C4)cs1)C(=O)N2` (stereo partly drawn), the TGI in assay [1], in [3], in [4], in [5], in assay [6] and in assay [7] was > 100 µM in each case. The TGI in assay [8], in [9] and in [10] was > 100 µM each time.

With `Cc1nc2sc(C(=O)c3ccc(Cl)cc3)c(N)c2c(-c2ccccc2Cl)c1C(=O)Nc1ccccc1`, the TGI is 41 µM in [1]; 51.1 µM in assay [2]; 19 µM in assay [3]; > 70.5 µM in assay [4]; 31.7 µM in assay [5]; 15.9 µM in assay [6]. In addition, the TGI in assay [7] came out at 48 µM; in [8] it was 26.8 µM; in [9], 50 µM; in [10], 31.4 µM.

As for `COC1(CC[C@@H](C)COC2OC(CO)C(O)C(O)C2O)O[C@H]2C[C@H]3[C@@H]4CC=C5C[C@@H](OC6OC(CO)C(O)C(OC7OC(CO)C(O)C(O)C7O)C6OC6OC(C)C(O)C(O)C6O)CC[C@]5(C)[C@H]4CC[C@]3(C)[C@H]2[C@@H]1C` (stereo partly drawn), the TGI turned out to be 28.4 µM in assay [1]; 9.53 µM in [2]; 25.9 µM in [3]; 19.8 µM in [4]; 7.03 µM in assay [5]; 12.3 µM in assay [6]. For the same molecule, the TGI in assay [7] worked out at 31.8 µM; in assay [8], 34.9 µM; in assay [9], 4.36 µM; in [10], 9.36 µM.

In the case of `COC(=O)C1(SC)C2CCC3C2CCC31` (stereo not drawn), the TGI in assay [1], in assay [2], in assay [3], in assay [4], in assay [5] and in assay [6] was > 100 µM in each case. Moreover, the TGI in assay [7], in assay [8] and in assay [10] was > 100 µM in each case.
